US5861263A, “Preparation of preserved entamoeba histolytica antigens without enzymatic inhibitors and their use in immunological methods” (Universidad Autonoma De Nuevo Leon, priority 1992, dated 1999)

System: proteases of Entamoeba histolytica crude extract
Assay: Inhibition of crude amebic extract proteolytic activity (hide powder azure)
Assay type: biochemical, Entamoeba histolytica HK-9
Conditions: 4 mM iodoacetamide
Experimental: The second method was carried out according to Rinderknecht et al., Clinica Chimica Acta., 21: 197-203 (1968). The activity corresponding to 6 million trophozoites was tested. Crude amebic extracts, IC:M and IC:MC were used. The samples were resuspended in 1.5 ml 0.05M Tris-HCL pH 7.5 containing 0.5% Triton X-100, and incubated for one hour at 4° C. and centrifuged at 11,000×g for 15 minutes. One ml. of the supernatant was added to 1 ml Tris-HCl containing 5 mg hide powder azure and 100 μl .2M cysteine. The samples were incubated at 37° C. for 1 hour and at the end of which the reaction was stopped by putting the tubes in an ice water bath. They were cold-centrifuged for 5 minutes at 450×g. The absorbency of the supernatants were determined at a wavelength of 600 nm. The former treatment was also done with samples that were incubated in the presence of SDS 2% or 2-ME 5% or 4 mM iodoacetamide. The positive control was taken as the activity obtained with 0.23 mg papain, which was activated with 0.7 mM 2-ME in Tris-HCl 0.05M at pH 8.0 at 4° C. for 10 minutes and then at 37° C. for 15 minutes with frequent stirring. Reaction mixtures without extracts were used as the negative control.

For `NC(=O)CI` [iodoacetamide], the “inhibition of the activity of the crude extract” value was “approximately 70%”.
